How the values were obtained:
HGF/MET system = molecular target: T1, HGF/MET system (Homo sapiens, UniProt P08581+P14210); assay: Phospho-MET ELISA; format: cell-based; parameters: key: − indicates that the compound failed to significantly augment MET phosphorylation; + indicates maximum potency at or above 100 nM; ++ indicates maximum potency at or above 10 nM; +++ indicates maximum potency at or above 1 nM; ++++ indicates maximum potency at or above 0.1 nM; conditions: HEK293 cells, 1 ng/mL recombinant HGF, 15 minutes, pMET ELISA
T1 construct: HEK293 cells were prepared by passage into 6-well multi-plates; endogenous in cells; host or cells: HEK293
T1 sequence (P08581 308-1390 limits assumed): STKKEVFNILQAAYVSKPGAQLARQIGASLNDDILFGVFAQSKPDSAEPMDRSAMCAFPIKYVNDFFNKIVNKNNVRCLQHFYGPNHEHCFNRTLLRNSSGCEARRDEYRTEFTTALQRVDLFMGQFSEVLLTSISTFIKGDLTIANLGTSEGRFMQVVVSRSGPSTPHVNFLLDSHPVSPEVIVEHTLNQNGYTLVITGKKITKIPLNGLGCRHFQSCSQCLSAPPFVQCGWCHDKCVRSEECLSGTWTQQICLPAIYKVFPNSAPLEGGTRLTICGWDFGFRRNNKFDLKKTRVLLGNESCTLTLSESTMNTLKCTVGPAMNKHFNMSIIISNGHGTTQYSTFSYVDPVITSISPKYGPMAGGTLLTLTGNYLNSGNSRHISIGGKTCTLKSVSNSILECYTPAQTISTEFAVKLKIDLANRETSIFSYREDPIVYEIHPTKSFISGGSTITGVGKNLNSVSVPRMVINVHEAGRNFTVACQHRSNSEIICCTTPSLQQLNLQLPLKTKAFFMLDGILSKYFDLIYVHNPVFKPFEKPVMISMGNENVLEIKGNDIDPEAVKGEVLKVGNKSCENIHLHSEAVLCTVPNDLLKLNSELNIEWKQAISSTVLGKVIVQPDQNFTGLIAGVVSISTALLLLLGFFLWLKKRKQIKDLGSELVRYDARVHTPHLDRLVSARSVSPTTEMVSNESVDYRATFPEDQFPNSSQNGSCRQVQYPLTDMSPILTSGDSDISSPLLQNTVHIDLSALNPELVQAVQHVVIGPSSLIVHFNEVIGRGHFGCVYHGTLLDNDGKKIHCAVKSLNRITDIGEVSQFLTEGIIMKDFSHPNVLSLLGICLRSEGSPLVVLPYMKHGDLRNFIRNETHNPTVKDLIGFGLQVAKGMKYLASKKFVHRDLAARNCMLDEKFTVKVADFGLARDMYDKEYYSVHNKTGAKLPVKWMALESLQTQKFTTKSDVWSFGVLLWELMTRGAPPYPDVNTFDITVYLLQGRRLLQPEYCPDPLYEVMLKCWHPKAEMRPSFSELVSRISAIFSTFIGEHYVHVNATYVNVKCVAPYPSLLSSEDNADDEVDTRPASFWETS
T1 sequence (P14210 32-494 limits assumed): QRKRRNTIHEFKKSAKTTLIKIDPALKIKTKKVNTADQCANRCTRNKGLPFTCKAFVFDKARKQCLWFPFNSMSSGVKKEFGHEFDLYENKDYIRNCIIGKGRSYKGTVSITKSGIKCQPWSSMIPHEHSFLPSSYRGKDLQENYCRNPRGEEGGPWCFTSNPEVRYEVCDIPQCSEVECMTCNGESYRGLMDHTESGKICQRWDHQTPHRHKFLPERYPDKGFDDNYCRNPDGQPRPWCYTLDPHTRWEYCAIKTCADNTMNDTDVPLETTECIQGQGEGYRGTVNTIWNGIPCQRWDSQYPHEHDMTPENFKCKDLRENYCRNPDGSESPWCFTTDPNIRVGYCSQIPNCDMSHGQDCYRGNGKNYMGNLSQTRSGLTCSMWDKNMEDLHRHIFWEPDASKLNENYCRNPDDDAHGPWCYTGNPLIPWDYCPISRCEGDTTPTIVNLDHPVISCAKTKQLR
Protocol: Compounds were screened for potency towards the HGF/MET system using phospho-MET (pMET) ELISA kits (Cell Signaling). pMET levels were detected in samples having low (1 ng/mL) and high (10 ng/mL) concentrations of HGF.
HEK293 cells were prepared by passage into 6-well multi-plates and grown at 37° C. at 5% CO2 in DMEM+10% FBS until approximately 90% confluent. Cells were then starved for at least 8 hours in serum-free growth media.
Exemplary compounds were prepared in DMEM+0.1% FBS, diluted and added to treatment media with 1 ng/mL recombinant HGF protein (R&D Systems). Cells were incubated in triplicate at 37° C. and 5% CO2 for 15 minutes. Samples were then treated with 180 μL ice-cold RIPA (radioimmunoprecipitation assay) buffer and cells were lysed on ice for 15 minutes. Lysates were cleared by centrifugation at 16,000-g for 15 minutes and the supernatant was retained. Samples were normalized using a BCA assay of lysates to determine protein concentrations across the samples.
Between 50 and 100 μg total protein lysate was loaded into ELISA wells in pMET Sandwich ELISA kit (Cell Signaling Catalog #7227C), ensuring equal protein load in each well. The ELISA was processed according to manufacturer's instructions. After color developed, absorbance was read on an optical plate reader at 450 nm.
Potency measurements were determined using peak efficacy by scaling test compound dose treatments along a scale of 1-10 between 1 ng/mL and 10 ng/mL HGF doses according to the following formula: […]
where y is the normalized data-point, x is the raw data point, A is the mean HGF at 1 ng/mL, and B is the mean HGF at 10 ng/mL.

MDCK cells = assay: Cell scattering behavior assay; format: cell-based; parameters: key: − indicates that the compound failed to significantly promote cell scattering behavior; + indicates maximum potency at or above 100 nM; ++ indicates maximum potency at or above 10 nM; +++ indicates maximum potency at or above 1 nM; ++++ indicates maximum potency at or above 0.1 nM; conditions: 5 ng/mL HGF, 24 hours, normalized particle count vs HGF alone
Protocol: MDCK cells were grown under normal conditions and observed to spontaneously form tight colonies as they proliferate. MDCK cells respond to HGF treatment by moving away from each other (scattering), which is quantified to assess the amount of HGF/MET activation in the cell population. In this experiment, MDCK cells were plated in a 96-well format, treated with HGF and exemplary compounds, fluorescently stained, imaged in large fields, and scattering behavior was quantified. Quantification was determined by analyzing the number of continuous groups of cells compared to the total stained area imaged (normalized particle counts).
MDCK cells were plated at low density in black-walled imaging plates and allowed to attach overnight at 37° C. and 5% CO2 in DMEM+10% FBS. Cells were then starved to 2 hours in DMEM without FBS (“starve media”). Samples containing exemplary compounds were prepared in DMEM without FBS and included 5 ng/mL HGF protein (“treatment media”). A control curve was also prepared for each plate using HGF concentrations of 0, 5, 10, and 20 ng/mL. Starve media was replaced with treatment media and cells were incubated for 24 hours at 37° C. and 5% CO2.
After incubation, cells were fixed by replacing treatment media with cold ethanol and incubating for 20 minutes at 4° C. Cells were then rehydrated by washing with PBS and then with stain solution (fluorescent wheat germ agglutinin; WGA488 at 20 μg/mL in PBS). Cells were incubated with stain solution 30 minutes at room temperature after which stain solution was replaced with fresh PBS.
Fields of cells were imaged using an iCyte high content imager in the green wavelength. Images were converted to binary and analyzed for particle size and particle count. For the purpose of analysis, an individual cell touching no other cells or separated colonies of cells were identified as particles, and particle counts were normalized by the total signal area to account for differences in cell number. […] Compound potency was assessed by statistical increase in normalized particle count compared to HGF treatment alone.

[1] = Turbidimetric solubility assay; format: physicochemical; conditions: aqueous buffer, kinetic from dmso stock, PBS, 37° C., absorbance 620 nm
Protocol: Aqueous solubility is a critical drug property that helps to predict bioavailability. Generally, compounds with aqueous solubility <100 μg/ml are poor drugs.
To assess a compound's solubility by turbidity, test compounds were first dissolved in organic solvent (DMSO) at a concentration of 10 mM. This compound solution was then diluted in aqueous solvent (PBS) in a dilution series from […] in a 96-well assay plate. Solutions were incubated at 37° C. for 2 hours.
In wells with test compounds over their solubility limit, the compound will precipitate, effectively blocking the passage of light and thus increasing the absorbance signal of UV light at a wavelength of 620 nm. Compounds were considered insoluble at a tested concentration if turbidity raises the absorbance more than 10% above control reads.

[2] = Parallel artificial membrane permeability assay (PAMPA); format: in vitro ADME; conditions: PBS, room temperature
Protocol: Bioavailable drugs must permeate the cellular membranes of the lining of the digestive tract. To estimate the penetrability of exemplary compounds, the in vitro parallel artificial membrane permeability assay (PAMPA) was utilized.
Test compounds must have a standard curve in the final read plate to determine partitioned concentration of each drug. A 6-point standard curve was prepared for each compound from 0 to 200 μM in phosphate-buffered saline (PBS).
Test compound solution (300 μL in PBS) was added to the donor (bottom) well of the PAMPA plate in 5 replicates and PBS vehicle (200 μL) was added to the acceptor (top) wells of appropriate wells to match the loading of the donor plate. The bottom and top of the PAMPA plates were then sandwiched together. The PAMPA plates were then incubated at room temperature for 5 hours. After incubation, 150 μL of donor solution was added to a UV compatible plate containing the corresponding standard curve. 150 μL of acceptor well solution was added adjacent to the corresponding standard curve and donor well samples for that compound. The plate was then read using a UV plate reader.
Permeability and membrane retention were then calculated based on the following formulas:
Permeability (cm/s): (Pe)(cm/s)={−ln [1−CA(t)/Ceq]}/[A*(1/VD+1/VA)*t] (equation 1) • where: • A=filter area (0.3 cm^2); • VD=donor well volume (0.3 mL); • VA=acceptor well volume (0.2 mL); • t=incubation time (seconds); • CA(t)=compound concentration in acceptor well at time t; • CD(t)=compound concentration in donor well at time t; and • Ceq=[CD(t)*VD+CA(t)*VA]/(VD+VA).
Membrane Retention (R)=1−[CD(t)*VD+CA(t)*VA]/(C0*VD) (equation 2) • where: • CD(t), VD, CA(t), and VA are as defined for equation 1, and • C0=initial concentration in donor well (200 uM).

HepG2 cells = assay: Cytotoxicity assay (LDH release); format: cell-based; conditions: 48 hours, 0.1 to 100 μM
Protocol: This experiment was designed to obtain a preliminary assessment of cytotoxicity.
HepG2 cells were plated in 96-well cell culture plates and allowed to attach overnight at 37° C., 5% CO2 in EMEM+10% FBS. Treatments were made in complete media (EMEM+10% FBS) and included a dilution series of test compounds from 0.1 to 100 μM. Known cytotoxin cerivastatin was used as a positive assay control and prepared at a final concentration of 0.5 μM.
Growth media was replaced with treatment media (EMEM+10% FBS containing test compound dissolved in DMSO) and cells were incubated with test compounds for 48 hours. At the end of the incubation period, supernatant media from each well was transferred to a new plate and LDH assay working solution was added. LDH assay solution undergoes a colorimetric reaction in proportion to the amount of lactate dehydrogenase (an intracellular protein that was only found in the media in the presence of lysed cells) in the media. Color reaction was quantified by measurement of absorbance at a wavelength of 490 nm.
The signal range of the assay was determined by no manipulation in a negative control treatment and full lysis of all cells in a lysis control sample. Compounds that increase the level of cytotoxicity more than 20% above negative control samples were considered cytotoxic in this assay.

CCC(C)CN1CC2N(C(=O)c3ccc(O)cc3)CCC(=O)N2[C@@H](C)C1=O (some centres unmarked) [Compound 3a]
Potency (augmentation of MET phosphorylation) (HGF/MET system): −
Potency (cell scattering) (MDCK cells): −
solubility at 2 h [1]: > 300 µM
Permeability ([2]; 5 hours): +++ (+++ indicates permeability below 2 × 10^−6 cm/s)

CCC(C)CN1CC2N(C(=O)c3ccc(O)nc3)CCC(=O)N2[C@@H](C)C1=O (some centres unmarked) [Compound 4a]
Potency (augmentation of MET phosphorylation) (HGF/MET system): + (+ indicates maximum potency at or above 100 nM)
Potency (cell scattering) (MDCK cells): + (+ indicates maximum potency at or above 100 nM)
solubility at 2 h [1]: > 300 µM
Papp at 5 h, 200 µM [2]: > 10 ×10⁻⁶ cm/s
Cytotoxicity (HepG2 cells): ++++ (++++ indicates non-toxic at 100 μM)

CCC(C)N1CC2N(Cc3ccc(O)cc3)CCC(=O)N2CC1=O (centres unmarked) [Compound 9]
Potency (augmentation of MET phosphorylation) (HGF/MET system): −
Potency (cell scattering) (MDCK cells): −
solubility at 2 h [1]: > 300 µM
Papp at 5 h, 200 µM [2]: > 2 ×10⁻⁶ cm/s
Cytotoxicity (HepG2 cells): ++++ (++++ indicates non-toxic at 100 μM)

C=CCCN1CC2N(Cc3ccc(OC(F)F)cc3)CCC(=O)N2C(C)C1=O (centres unmarked) [Compound 39]
Potency (augmentation of MET phosphorylation) (HGF/MET system): −
Potency (cell scattering) (MDCK cells): −
solubility at 2 h [1]: > 300 µM

CCCCN1CC2N(Cc3ccc(OC(F)F)cc3)CCC(=O)N2C(C)C1=O (centres unmarked) [Compound 41]
Potency (augmentation of MET phosphorylation) (HGF/MET system): −
Potency (cell scattering) (MDCK cells): −
solubility at 2 h [1]: > 300 µM

CCC(C)CN1CC2N(Cc3ccc(F)cc3)CCC(=O)N2C(C)C1=O (centres unmarked) [Compound 42]
Potency (augmentation of MET phosphorylation) (HGF/MET system): ++++ (++++ indicates maximum potency at or above 0.1 nM)
Potency (cell scattering) (MDCK cells): +++ (+++ indicates maximum potency at or above 1 nM)
solubility at 2 h [1]: > 300 µM
Papp at 5 h, 200 µM [2]: > 2 ×10⁻⁶ cm/s
Cytotoxicity (HepG2 cells): ++++ (++++ indicates non-toxic at 100 μM)

CCC(C)CN1CC2N(Cc3ccc(C(F)(F)F)c(Cl)c3)CCC(=O)N2C(C)C1=O (centres unmarked) [Compound 43]
Potency (augmentation of MET phosphorylation) (HGF/MET system): −
Potency (cell scattering) (MDCK cells): −
solubility at 2 h [1]: > 100 µM

CCC(C)CN1CC2N(Cc3c[nH]c4ccccc34)CCC(=O)N2C(C)C1=O (centres unmarked) [Compound 44]
Potency (augmentation of MET phosphorylation) (HGF/MET system): −
Potency (cell scattering) (MDCK cells): −
solubility at 2 h [1]: > 100 µM

CC1C(=O)N(CCC2CCCC2)CC2N(Cc3ccc(F)cc3)CCC(=O)N12 (centres unmarked) [Compound 46, 8-(2-cyclopentylethyl)-1-(4-fluorobenzyl)-6-methylhexahydro-4H-pyrazino[1,2-c]pyrimidine-4,7(6H)-dione]
Potency (augmentation of MET phosphorylation) (HGF/MET system): −
Potency (cell scattering) (MDCK cells): −
solubility at 2 h [1]: > 300 µM

CCC(C)CN1CC2N(Cc3ccc(OC(F)F)cc3)CCC(=O)N2C(CC(=O)O)C1=O (centres unmarked) [Compound 49, 2-(1-(4-(difluoromethoxy)benzyl)-8-(2-methylbutyl)-4,7-dioxooctahydro-2H-pyrazino[1,2-a]pyrimidin-6-yl)acetic acid]
Potency (augmentation of MET phosphorylation) (HGF/MET system): ++++ (++++ indicates maximum potency at or above 0.1 nM)
Potency (cell scattering) (MDCK cells): ++++ (++++ indicates maximum potency at or above 0.1 nM)
solubility at 2 h [1]: > 300 µM
Papp at 5 h, 200 µM [2]: > 2 ×10⁻⁶ cm/s
Cytotoxicity (HepG2 cells): ++++ (++++ indicates non-toxic at 100 μM)

CCC(C)CN1CC2N(Cc3ccc(OC(F)F)cc3)CCC(=O)N2C(CC(N)=O)C1=O (centres unmarked) [Compound 50, 2-(1-(4-(difluoromethoxy)benzyl)-8-(2-methylbutyl)-4,7-dioxooctahydro-2H-pyrazino[1,2-a]pyrimidin-6-yl)acetamide]
Potency (augmentation of MET phosphorylation) (HGF/MET system): −
Potency (cell scattering) (MDCK cells): −
solubility at 2 h [1]: > 300 µM

CC1C(=O)N(CCC2CCC2)CC2N(Cc3ccc(C(F)(F)F)c(Cl)c3)CCC(=O)N12 (centres unmarked) [Compound 51]
Potency (augmentation of MET phosphorylation) (HGF/MET system): +++ (+++ indicates maximum potency at or above 1 nM)
Potency (cell scattering) (MDCK cells): +++ (+++ indicates maximum potency at or above 1 nM)
solubility at 2 h [1]: > 100 µM
Papp at 5 h, 200 µM [2]: < 2 ×10⁻⁶ cm/s
Cytotoxicity (HepG2 cells): +++ (+++ indicates non-toxic at 10 μM)
